The values below come from patent US10519111B2, “UV absorbing compounds, compositions comprising same and uses thereof” (CORAL SUNSCREEN PTY LTD, priority 2013, dated 2019).

This series can be described thus: UV absorption properties (λmax, molar extinction coefficient ε, efficiency E 1%, 1 cm). The series is classed as physicochemical. The conditions noted are these: for ε (molar extinction coefficient): values in order of the λmax values.

Take `Cc1ccc(S(=O)(=O)NC(=O)C2=CN(C(C)(C)C)CCC2(C)C)cc1` [Compound 186, 1-(tert-butyl)-4,4-dimethyl-N-tosyl-1,4,5,6-tetrahydropyridine-3-carboxamide]: the “UV λmax” value was determined as 304 nm and the “ε (molar extinction coefficient)” value turned out to be 34588 M⁻¹ cm⁻¹.
For `CC1(C)CCN(C(C)(C)C)C=C1C(=O)Nc1ccc(NC(=O)C2=CN(C(C)(C)C)CCC2(C)C)cc1` [Compound 187, N,N′-(1,4-phenylene)bis(1-(tert-butyl)-4,4-dimethyl-1,4,5,6-tetrahydropyridine-3-carboxamide)], the “UV λmax” value came to 322 nm and the “ε (molar extinction coefficient)” value turned out to be 71962 M⁻¹ cm⁻¹.
For the molecule `CC1(C)CCN(C(C)(C)C)C=C1C(=O)Nc1cccc(NC(=O)C2=CN(C(C)(C)C)CCC2(C)C)c1` [Compound 188, N,N′-(1,3-phenylene)bis(1-(tert-butyl)-4,4-dimethyl-1,4,5,6-tetrahydropyridine-3-carboxamide)], the “UV λmax” value stood at 313 nm and the “ε (molar extinction coefficient)” value amounted to 55779 M⁻¹ cm⁻¹.
In the same order, the values of `Cc1ccc(N2C=C(C(=O)Nc3ccc(C)c(NC(=O)C4=CN(C(C)(C)C)CCC4(C)C)c3)C(C)(C)CC2)cc1` [Compound 190, 1-(tert-butyl)-N-(5-(4,4-dimethyl-1-(p-tolyl)-1,4,5,6-tetrahydropyridine-3-carboxamido)-2-methylphenyl)-4,4-dimethyl-1,4,5,6-tetrahydropyridine-3-carboxamide] are 314 nm and 51743 M⁻¹ cm⁻¹.
The matching figures for `CC1(C)CCN(c2ccc(C(C)(C)C)cc2)C=C1C(=O)Nc1ccc(NC(=O)C2=CN(c3ccc(C(C)(C)C)cc3)CCC2(C)C)cc1` [Compound 191, N,N′-(1,4-phenylene)bis(1-(4-(tert-butyl)phenyl)-4,4-dimethyl-1,4,5,6-tetrahydropyridine-3-carboxamide)]: 331 nm and 68095 M⁻¹ cm⁻¹.
In the same order, the values of `Cc1ccc(N2C=C(C(=O)Nc3ccccc3)C(C)(C)CC2)cc1` [Compound 192, 4,4-dimethyl-N-phenyl-1-(p-tolyl)-1,4,5,6-tetrahydropyridine-3-carboxamide] are 323 nm and 33948 M⁻¹ cm⁻¹.
Regarding `CC1(C)CCN(c2ccc(C(C)(C)C)cc2)C=C1C(=O)Nc1ccccc1` [Compound 193, 1-(4-(tert-butyl)phenyl)-4,4-dimethyl-N-phenyl-1,4,5,6-tetrahydropyridine-3-carboxamide], the “UV λmax” value came to 324 nm and the “ε (molar extinction coefficient)” value amounted to 35759 M⁻¹ cm⁻¹.
In the same order, the values of `CC1(C)CCN(c2ccc(C(C)(C)C)cc2)C=C1C(=O)C(F)(F)F` [Compound 194, 1-(1-(4-(tert-butyl)phenyl)-4,4-dimethyl-1,4,5,6-tetrahydropyridin-3-yl)-2,2,2-trifluoroethanone] are 337 nm and 42723 M⁻¹ cm⁻¹.
In the same order, the values of `COc1ccc(N2C=C(C(=O)C(F)(F)F)C(C)(C)CC2)cc1` [Compound 195, 2,2,2-trifluoro-1-(1-(4-methoxyphenyl)-4,4-dimethyl-1,4,5,6-tetrahydropyridin-3-yl)ethanone] are 339 nm and 24235 M⁻¹ cm⁻¹.
In the case of `CN(C)c1ccc(N2C=C(C(=O)C(F)(F)F)C(C)(C)CC2)cc1` [Compound 196, 1-(1-(4-(dimethylamino)phenyl)-4,4-dimethyl-1,4,5,6-tetrahydropyridin-3-yl)-2,2,2-trifluoroethanone], the “UV λmax” value is on record as 354 nm and the “ε (molar extinction coefficient)” value stood at 32744 M⁻¹ cm⁻¹.
The matching figures for `Cc1ccc(N2C=C(C(=O)C(F)(F)F)C(C)(C)CC2)cc1` [Compound 197, 1-(4,4-dimethyl-1-(p-tolyl)-1,4,5,6-tetrahydropyridin-3-yl)-2,2,2-trifluoroethanone]: 337 nm and 43513 M⁻¹ cm⁻¹.
